Consider nine compounds from PubChem BioAssay (NCI).

Each structure is given as a SMILES string. Values joined by “and” are separate entries in the source; they are usually repeats but may differ in a detail not shown here. Identical values can stand only once.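 Growth conditions: 96-well plates. Treatment: test compound, 48 hours, 5 concentrations. Analysis: linear interpolation between bracketing concentrations; unreached endpoints set to highest concentration. The concentration for 50% growth inhibition is given as GI50. Definition used: TGI = concentration required for complete inhibition of growth.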

A word on the GI50: it is the concentration giving 50% growth inhibition. A word on the TGI: it is the concentration at which net growth stops. A low value points to greater sensitivity of the cells.

Experiment in all cases: DTP human tumour cell line panel, 48 h
The subject of experiment [1] is OVCAR-5 ovarian.
For experiment [2], the system named is NCI/ADR-RES ovarian.
For experiment [3], the system named is SK-MEL-2 melanoma.
Experiment [4] concerns MDA-MB-231 breast.
The subject of experiment [5] is SF-539 CNS.
The subject of experiment [6] is IGROV1 ovarian.
Experiment [7] deals with EKVX NSCLC.
For experiment [8], the system named is OVCAR-3 ovarian.
For experiment [9], the system named is HCC-2998 colon.
The test system of experiment [10] is HL-60(TB) leukemia.

For the compound `CCOC(=O)c1cn2ncnc(Oc3ccc(NC(=O)NCCN(CC)CC)c(Cl)c3)c2c1C`, the GI50 in [1] was 3.97 µM; in [2], 4.26 µM; in [3], 2.36 µM; in [4], 2.1 µM; in experiment [5], 1.76 µM; in experiment [6] it was 6.71 µM. In addition, the GI50 in [7] was 3.79 µM; in experiment [8] it was 8.12 µM; in experiment [9], 2.01 µM; in experiment [10], 1.81 µM. Also, the TGI was determined as 16.1 µM in experiment [1]; 64.5 µM in experiment [2]; 5.38 µM in [3]; 4.37 µM in [4]; 3.45 µM in [5]; 26.2 µM in [6]. The TGI worked out at 21.5 µM in experiment [7], 35.8 µM in experiment [8], 4.68 µM in experiment [9] and 4.07 µM in experiment [10].

For the compound `CCCCCCCCCCC(CN(CC)CC)C(O)c1ccccc1` (stereo not drawn), the GI50 in experiment [1] was 1.78 µM; in [2], 1.9 µM; in experiment [3] it was 2.31 µM; in [4], 1.72 µM; in experiment [5], 1.72 µM; in experiment [6] it was 1.82 µM. The GI50 was 1.56 µM in experiment [7], 1.99 µM in [8], 1.81 µM in [9] and 2.13 µM in experiment [10]. For the same compound, the TGI in experiment [1] was found to be 3.49 µM; in experiment [2] it was 3.7 µM; in [3] it was 5.45 µM; in [4], 3.43 µM; in experiment [5], 3.3 µM; in experiment [6], 3.51 µM. For the same compound, the TGI in [7] is 3.74 µM; in [8], 3.78 µM; in experiment [9] it was 3.39 µM; in experiment [10], 5.04 µM.

Regarding `O=C1/C(=C/c2ccc(C(F)(F)F)cc2)COc2ccc(O)cc21`, the GI50 in [1] is 2.18 µM; in experiment [2] it was 2.15 µM; in [3], 9.43 µM; in experiment [4] it was 2.36 µM; in experiment [5], 1.68 µM; in [6] it was 1.6 µM. For the same compound, the GI50 in experiment [7] was 10.7 µM; in experiment [8] it was 1.7 µM; in [9], 1.57 µM; in experiment [10], 1.27 µM. Also, the concentration for total growth inhibition (TGI) was 5.49 µM in experiment [1]; 6.42 µM in experiment [2]; 21.9 µM in [3]; 5.65 µM in [4]; 3.3 µM in experiment [5]; 3.17 µM in experiment [6]. The TGI in [7] is 22.5 µM; in [8], 3.09 µM; in experiment [9], 2.93 µM; in [10], 4.35 µM.

For the compound `CN1CCN(c2ccc([N+](=O)[O-])c3no[n+]([O-])c23)CC1`, the GI50 in experiment [1] was 1.49 µM; in experiment [2], 0.286 µM; in experiment [3], 0.468 µM; in experiment [5], 0.246 µM; in experiment [6], 0.0516 µM; in experiment [8], 0.241 µM. Besides, the GI50 is 1.32 µM in experiment [9] and 0.0322 µM in experiment [10]. Besides, the total growth inhibition concentration (TGI) in experiment [1] was 4.25 µM and 3.27 µM; in [2] it was 2.46 µM and 1.47 µM; in experiment [3], 3.01 µM and 1.66 µM; in [4] it was 3.46 µM and 3.65 µM; in experiment [5], 0.722 µM and 0.733 µM; in experiment [6], 0.919 µM and 0.362 µM. For the same compound, the TGI in experiment [7] is 2.83 µM and 2.92 µM; in [8] it was 1.29 µM and 0.753 µM; in experiment [9], 2.73 µM; in experiment [10], 0.157 µM and 0.155 µM.

For `CC(C)c1ccc(O)c(O)c(=O)c1` (tested in a mixture with another compound), the TGI in experiment [1] was over 100 µM; in experiment [2] it was over 36.9 µM; in experiment [3], 3.02 µM; in experiment [4], 26.7 µM; in experiment [5], over 21.1 µM; in experiment [6], over 54.9 µM. Further, the total growth inhibition concentration (TGI) in experiment [7] was 47.7 µM; in experiment [8] it was over 100 µM; in [9], 4.04 µM; in experiment [10], 2.39 µM.

For the compound `Oc1oc(-c2ccccc2)nc1/C=C1/C=NN=N1`, the total growth inhibition concentration (TGI) in experiment [1], in [2], in experiment [3], in [4], in [5] and in experiment [6] was over 100 µM in each case. The TGI in [7], in experiment [8], in experiment [9] and in experiment [10] was over 100 µM throughout.

Regarding `Cc1cccc2cc3ccc4ccccc4c3cc12`, the TGI in experiment [1] is over 100 µM; in experiment [2], over 100 µM; in experiment [3], 66.5 µM; in experiment [4], over 100 µM; in experiment [5], over 100 µM; in [6] it was over 100 µM. The total growth inhibition concentration (TGI) in [7] is 78.3 µM; in experiment [8] it was over 100 µM; in experiment [9], 46.7 µM; in [10] it was 52 µM.

For the compound `CCN1CCN(c2nc(C)cc(N(CCCNc3ccnc4cc(Cl)ccc34)Cc3ccco3)n2)CC1`, the GI50 in [1] was 7.9 µM; in experiment [2], 4.42 µM; in experiment [3] it was 1.94 µM; in experiment [4] it was 3.18 µM; in [5], 1.75 µM; in experiment [6] it was 3.38 µM. Further, the GI50 in experiment [7] was 7.67 µM; in experiment [8], 4.29 µM; in experiment [9] it was 2.05 µM; in experiment [10], 2.11 µM. The TGI came out at 28.4 µM in [1]; 19.7 µM in experiment [2]; 3.92 µM in experiment [3]; 12.4 µM in [4]; 3.46 µM in experiment [5]; 15.4 µM in [6]. Moreover, the TGI in experiment [7] is 25.3 µM; in experiment [8], 20.3 µM; in experiment [9], 5.89 µM; in experiment [10], 5.08 µM.

Regarding `C[C@@H]1CCC2[C@@H](C)[C@H](OC(=O)CCC(=O)NCCNC(=O)Cc3cc(=O)oc4cc(N(C)C)ccc34)O[C@@H]3O[C@]4(C)CC[C@@H]1C23OO4` (stereo partly drawn), the GI50 in [1] was 1.28 µM; in experiment [2] it was 1.19 µM; in experiment [3], 5.4 µM; in experiment [4] it was 22.6 µM; in experiment [5], 3.22 µM; in [6], 2.55 µM. Also, the GI50 in [7] was 0.645 µM; in experiment [8], 0.629 µM; in experiment [9] it was 6.85 µM; in [10] it was 0.301 µM. The concentration for total growth inhibition (TGI) in [1] is over 76.9 µM; in experiment [2], 22.9 µM; in experiment [3], over 43.7 µM; in experiment [4], over 100 µM; in experiment [5], 24.3 µM; in experiment [6], 17.7 µM. For the same compound, the concentration for total growth inhibition (TGI) in [7] was 9.47 µM; in experiment [8], 18.1 µM; in experiment [9] it was over 100 µM; in [10], 6.77 µM.
